# Measured values published in patent publication US10966996B2, “Glechoma longitube extract, preparation method for same, and use thereof in sugar reduction, weight loss, and lipid reduction” (SHANGHAI INSTITUTE OF MATERIA MEDICA CHINESE ACADEMY OF …, priority 2014, dated 2021).
# System: db/db mice
# Assay: acute oral glucose tolerance in db/db mice
# Type: in vivo
# Settings: 100 mg/kg
# Procedure: Oral glucose tolerance test (OGTT) method: 8-week old male C57BL/KsJ mice (Shanghai Slac Laboratory Animal Company), 8 for each group, weight of 20±2 g, were fed according to SPF grade operation procedure and fasted for 16 hours prior to experiment. Blood was collected from tail vein of each group of mice prior to experiment. Blood glucose concentrations were measured using Roche ACCU-CHEK glucometer and recorded as time 0. Different concentrations of the compound were intragastric administrated to each administration group of mice, respectively. Equal volume of distilled water was given to control group of mice. The dosage volume was 10 ml/kg. Half an hour after administration, 5 g/kg glucose was intragastric administrated to each group of mice. Blood glucose concentrations of each group of mice were measured and recorded at 20 mins, 40 mins, and 80 mins after the intragastric administration. OGTT curves were recorded. Areas under the curves (AUC) were calibrated with the data in blood glucose of mice to which glucose was not given (calibration group). ONE-WAY-ANOVA was used to compare significant difference between each group (Note: all the experimental methods for acute oral glucose tolerance test in the following activity examples are the same to the experimental method in Example 5, unless otherwise indicated). […]
smiles,measurement,value
"O=C(O)C1O[C@@H](OC2C(O)[C@H](O)C(C(=O)O)O[C@H]2Oc2cc(O)c3c(=O)cc(-c4ccc(O)c(O)c4)oc3c2)C(O)C(O)[C@@H]1O (stereo partly drawn) [Compound I, luteolin-7-O-[β-glucuronosyl(1→2)β-glucuronic acid]]",acute oral glucose tolerance in db/db mice,significantly enhances acute oral glucose tolerance
